Measured values from US11369654B2, “Application method of Dendrobium candidum in preparing medicine for treating hypertension” (Hangzhou Danhe Pharmaceutical CO., Ltd., priority 2017, dated 2022).
Values joined by “and” are separate entries in the source; they are usually repeats but may differ in a detail not shown here. Equal entries are not always repeated.

What was measured:
[1] = test system: Spontaneously Hypertensive Rats (SHR); test: Experiment 1: antihypertensive effect of Dendrobium officinale extraction methods, tail artery blood pressure; format: in vivo, rat
Protocol: Rats: Spontaneously Hypertensive Rats (SHR), Wistar rats are used as normal controls.
(§1) Rat Blood Pressure Measurement: BP-98A Non-invasive Tail Artery Blood Pressure Meter, Japan Soft Rotation Co., Ltd.
Group therapy is described in the following description. Blood pressure and body weight are measured and grouped after one week of adaptive feeding in all rats. The SHR rats are divided into the water extracting group after crushing and flattening, the water extracting group after crushing, and the water extracting group after grinding into powder, all Chinese medicine groups are given 0.8 g/kg body weight of crude drug, and the amlodipine besylate tablets 0.5 mg/kg body weight are given intragastrically in amlodipine group, the hypertensive model control group is given with the same amount of saline, while the normal control group is given with the same amount of saline. Eight rats in each group were treated for 2 weeks. Blood pressure measurement: The rats are preheated at 38° C. for 5-10 minutes to avoid blood flow in the tail of the rat. The blood pressure of the rats is measured three times in a waking and quiet state, and the average value of the three measurement times is used as the blood pressure of the rats. Blood pressure is measured once a week and once 2 hours after administration.

[2] = test system: Spontaneously Hypertensive Rats (SHR); test: Experiment 2: hypotensive effect of samples of Embodiment 1 and 2, tail artery blood pressure; format: in vivo, rat; conditions: for valley-peak ratio of Systolic Blood Pressure Reduction: 24 h divided by 2 h after administration
Protocol: Rats: 10 weeks old Spontaneously Hypertensive Rats (SHR), Wistar rats were used as normal controls.
as §1
Group therapy is described in the following description. Blood pressure and body weight are measured and grouped after one week of adaptive feeding in all rats. […] Eight rats in each group are treated for 8 weeks. Blood pressure is observed for 1 week after withdrawal.
Blood pressure measurement: The rats are preheated at 38° C. for 5-10 minutes to avoid blood flow in the tail of the rat. The blood pressure of the rats is measured three times in a waking and quiet state, and the average value of three measurement times is used as the blood pressure of the rats. Blood pressure is measured twice a week, once 2 hours after administration and once 24 hours after administration, to observe the immediate antihypertensive effect and after 24 hours antihypertensive effect (and the peak-to-valley ratio).
The valley-peak ratio calculation of depressurization amplitude: The difference of blood pressure before treatment minus 24 hours after administration is the trough of the range of blood pressure reduction, which is the lowest point before the next administration; the difference of blood pressure before treatment and 2 hours after administration is the peak value of blood pressure reduction, that is, the maximum point of blood pressure reduction after administration. Valley value of depressurization amplitude divided by peak value of depressurization amplitude is equal to valley-peak ratio of depressurization amplitude.

[3] = 2 h after administration, treatment for 1 week, 0.8 g/kg crude drug, amlodipine 0.5 mg/kg
[4] = 2 h after administration, treatment for 2 weeks, 0.8 g/kg crude drug, amlodipine 0.5 mg/kg
[5] = 2 h after administration, treatment for 2 weeks, 0.8 g/kg crude drug, amlodipine 0.5 mg/kg, listed as amlodipine
[6] = 2 h after administration, treatment for 1 week, 0.8 g/kg crude drug, amlodipine 0.5 mg/kg, listed as amlodipine
[7] = 2 h after administration, treatment for 3 weeks, 0.8 g/kg crude drug, amlodipine 0.5 mg/kg
[8] = 2 h after administration, treatment for 4 weeks, 0.8 g/kg crude drug, amlodipine 0.5 mg/kg
[9] = 2 h after administration, treatment for 5 weeks, 0.8 g/kg crude drug, amlodipine 0.5 mg/kg
[10] = 2 h after administration, treatment for 6 weeks, 0.8 g/kg crude drug, amlodipine 0.5 mg/kg
[11] = 2 h after administration, treatment for 7 weeks, 0.8 g/kg crude drug, amlodipine 0.5 mg/kg
[12] = 2 h after administration, treatment for 8 weeks, 0.8 g/kg crude drug, amlodipine 0.5 mg/kg
[13] = 2 h after administration, treatment for 8 weeks, 0.8 g/kg crude drug, amlodipine 0.5 mg/kg, listed as amlodipine
[14] = 24 h after administration, treatment for 1 week, 0.8 g/kg crude drug, amlodipine 0.5 mg/kg
[15] = 24 h after administration, treatment for 2 weeks, 0.8 g/kg crude drug, amlodipine 0.5 mg/kg
[16] = 24 h after administration, treatment for 3 weeks, 0.8 g/kg crude drug, amlodipine 0.5 mg/kg
[17] = 24 h after administration, treatment for 4 weeks, 0.8 g/kg crude drug, amlodipine 0.5 mg/kg
[18] = 24 h after administration, treatment for 5 weeks, 0.8 g/kg crude drug, amlodipine 0.5 mg/kg
[19] = 24 h after administration, treatment for 6 weeks, 0.8 g/kg crude drug, amlodipine 0.5 mg/kg
[20] = 24 h after administration, treatment for 7 weeks, 0.8 g/kg crude drug, amlodipine 0.5 mg/kg
[21] = 24 h after administration, treatment for 8 weeks, 0.8 g/kg crude drug, amlodipine 0.5 mg/kg
[22] = 24 h after administration, treatment for 8 weeks, 0.8 g/kg crude drug, amlodipine 0.5 mg/kg, listed as amlodipine
[23] = stopping for 1 week after 8 weeks of treatment
[24] = stopping for 3 days after 8 weeks of treatment
[25] = stopping for 3 days after 8 weeks of treatment, listed as amlodipine
[26] = treatment for 1 week, 0.8 g/kg crude drug, amlodipine 0.5 mg/kg
[27] = treatment for 2 weeks, 0.8 g/kg crude drug, amlodipine 0.5 mg/kg
[28] = treatment for 3 weeks, 0.8 g/kg crude drug, amlodipine 0.5 mg/kg
[29] = treatment for 4 weeks, 0.8 g/kg crude drug, amlodipine 0.5 mg/kg
[30] = treatment for 5 weeks, 0.8 g/kg crude drug, amlodipine 0.5 mg/kg
[31] = treatment for 6 weeks, 0.8 g/kg crude drug, amlodipine 0.5 mg/kg
[32] = treatment for 7 weeks, 0.8 g/kg crude drug, amlodipine 0.5 mg/kg
[33] = treatment for 8 weeks, 0.8 g/kg crude drug, amlodipine 0.5 mg/kg

CCOC(=O)C1=C(COCCN)NC(C)=C(C(=O)OC)C1c1ccccc1Cl (stereo not drawn) [Amlodipine, amlodipine besylate]
diastolic blood pressure [1, 3]: 142.6 ± 5.78 mmHg
systolic blood pressure [1, 3]: 173.8 ± 5.26 mmHg
diastolic blood pressure [1, 4]: 143.7 ± 4.28 mmHg
systolic blood pressure [1, 4]: 175.5 ± 4.48 mmHg
diastolic blood pressure [1, 5]: 143.7±4.28 mmHg
systolic blood pressure [1, 5]: 175.5±4.48 mmHg
diastolic blood pressure ([1]; before treatment): 157.4 ± 5.67 mmHg
systolic blood pressure ([1]; before treatment): 206.3 ± 6.26 mmHg
diastolic blood pressure [2, 3]: 143.2 mmHg
systolic blood pressure [2, 3]: 175.1 mmHg
diastolic blood pressure [2, 6]: 143.2±6.41 mmHg
systolic blood pressure [2, 6]: 175.1±4.44 mmHg
diastolic blood pressure [2, 4]: 145.5 mmHg
systolic blood pressure [2, 4]: 178.3 mmHg
diastolic blood pressure [2, 7]: 144.7 mmHg
systolic blood pressure [2, 7]: 177.8 mmHg
diastolic blood pressure [2, 8]: 146.2 mmHg
systolic blood pressure [2, 8]: 175.7 mmHg
diastolic blood pressure [2, 9]: 137.6 mmHg
systolic blood pressure [2, 9]: 174.3 mmHg
diastolic blood pressure [2, 10]: 143.1 mmHg
systolic blood pressure [2, 10]: 178.8 mmHg
diastolic blood pressure [2, 11]: 139.9 mmHg
systolic blood pressure [2, 11]: 175.8 mmHg
diastolic blood pressure [2, 12]: 144.7 mmHg
systolic blood pressure [2, 12]: 178.1 mmHg
diastolic blood pressure [2, 13]: 144.7±3.43 mmHg
systolic blood pressure [2, 13]: 178.1±2.67 mmHg
diastolic blood pressure [2, 14]: 162.3 mmHg
systolic blood pressure [2, 14]: 200.7 mmHg
diastolic blood pressure [2, 15]: 158.6 mmHg
systolic blood pressure [2, 15]: 202.6 mmHg
diastolic blood pressure [2, 16]: 159.0 mmHg
systolic blood pressure [2, 16]: 201.6 mmHg
diastolic blood pressure [2, 17]: 161.3 mmHg
systolic blood pressure [2, 17]: 209.0 mmHg
diastolic blood pressure [2, 18]: 161.8 mmHg
systolic blood pressure [2, 18]: 207.8 mmHg
diastolic blood pressure [2, 19]: 165.0 mmHg
systolic blood pressure [2, 19]: 202.8 mmHg
diastolic blood pressure [2, 20]: 156.3 mmHg
systolic blood pressure [2, 20]: 199.5 mmHg
diastolic blood pressure [2, 21]: 154.3 mmHg
systolic blood pressure [2, 21]: 202.0 mmHg
diastolic blood pressure [2, 22]: 154.3±5.50 mmHg
systolic blood pressure [2, 22]: 202.0±5.88 mmHg
diastolic blood pressure ([2]; before treatment): 156.0 mmHg
systolic blood pressure ([2]; before treatment): 209.8 mmHg and 209.8 ± 8.92 mmHg
diastolic blood pressure [2, 23]: 155.4 mmHg
systolic blood pressure [2, 23]: 214.2 mmHg
diastolic blood pressure [2, 24]: 158.7 mmHg
systolic blood pressure [2, 24]: 205.4 mmHg
diastolic blood pressure [2, 25]: 158.7±2.79 mmHg
systolic blood pressure [2, 25]: 205.4±1.85 mmHg
2-hour hypotensive amplitude (peak of systolic blood pressure reduction) [2, 26]: 34.7 mmHg
24-hour hypotensive amplitude (trough of systolic blood pressure reduction) [2, 26]: 9.1 mmHg
valley-peak ratio of Systolic Blood Pressure Reduction [2, 26]: 0.26
2-hour hypotensive amplitude (peak of systolic blood pressure reduction) [2, 27]: 31.5 mmHg
24-hour hypotensive amplitude (trough of systolic blood pressure reduction) [2, 27]: 7.2 mmHg
valley-peak ratio of Systolic Blood Pressure Reduction [2, 27]: 0.23
2-hour hypotensive amplitude (peak of systolic blood pressure reduction) [2, 28]: 32.0 mmHg
24-hour hypotensive amplitude (trough of systolic blood pressure reduction) [2, 28]: 8.2 mmHg
valley-peak ratio of Systolic Blood Pressure Reduction [2, 28]: 0.26
2-hour hypotensive amplitude (peak of systolic blood pressure reduction) [2, 29]: 34.1 mmHg
24-hour hypotensive amplitude (trough of systolic blood pressure reduction) [2, 29]: 0.8 mmHg
valley-peak ratio of Systolic Blood Pressure Reduction [2, 29]: 0.02
2-hour hypotensive amplitude (peak of systolic blood pressure reduction) [2, 30]: 35.5 mmHg
24-hour hypotensive amplitude (trough of systolic blood pressure reduction) [2, 30]: 2.0 mmHg
valley-peak ratio of Systolic Blood Pressure Reduction [2, 30]: 0.06
2-hour hypotensive amplitude (peak of systolic blood pressure reduction) [2, 31]: 31.0 mmHg
24-hour hypotensive amplitude (trough of systolic blood pressure reduction) [2, 31]: 7.0 mmHg
valley-peak ratio of Systolic Blood Pressure Reduction [2, 31]: 0.23
2-hour hypotensive amplitude (peak of systolic blood pressure reduction) [2, 32]: 34.0 mmHg
24-hour hypotensive amplitude (trough of systolic blood pressure reduction) [2, 32]: 10.3 mmHg
valley-peak ratio of Systolic Blood Pressure Reduction [2, 32]: 0.30
2-hour hypotensive amplitude (peak of systolic blood pressure reduction) [2, 33]: 31.7 mmHg
24-hour hypotensive amplitude (trough of systolic blood pressure reduction) [2, 33]: 7.8 mmHg
valley-peak ratio of Systolic Blood Pressure Reduction [2, 33]: 0.25
